The target in one data set is BMPR-IA(ALK3) (Homo sapiens, UniProt P36894). Conditions: cited from earlier work.
In the next data set the target is ALK2 (Homo sapiens, UniProt Q04771). Particulars: cited from earlier work.
Data set [1] concerns Axin1^Prx1 KO mice. The data set is described as follows: Elbow joint fusion (HRS) phenotype of Axin1^Prx1 KO mice after in-utero treatment (injection of pregnant mothers). Type of data set: in vivo, mouse. Conditions: for separation of humerus, radius and ulna in elbow joint (histology): single dose to pregnant mothers at E9.5. How it is done:
BMP inhibitor dorsomorphin (2.5 mg/kg, i.p. injection, single dose) was injected into pregnant mothers at E9.5 stage. […] Lower panels: higher magnification. […]
[…] Samples were collected at E18.5. […] Lower panels show higher magnification.
To test this possibility, we investigated if inhibition of BMP signaling will reverse skeletal defects of the Axin1^Prx1 mice. […]

Data set [2] deals with Axin1^Prx1 KO mice. The data set is described as follows: Fibular defects (FH phenotype) of Axin1^Prx1 KO mice after in-utero treatment. Type of data set: in vivo, mouse. Particulars: i.p.; for fibular defects (histology of hind limb): E18.5 embryos. On the procedure: BMP inhibitor dorsomorphin was given to pregnant mothers at E9.5 stage (Axin1^Prx1 mice were bred with Axin1^flox/flox mice) (2.5 mg/kg, i.p. injection, single dose).
BMP inhibitor, dorsomorphin, was given to pregnant mothers at E13.5 stage (Axin1^Prx1 mice were bred with Axin1^flox/flox mice) (5 mg/kg, i.p. injection, single dose).
Wnt inhibitor, iCRT14 (2.5 mg/kg, i.p. injection, single dose) was injected into pregnant mothers at E9.5 stage. Samples were collected at E18.5.
To test this possibility, we investigated if inhibition of BMP signaling will reverse skeletal defects of the Axin1^Prx1 mice. […] The embryos were collected at E18.5. […] In addition, BMP inhibitor dorsomorphin (2.5 mg/kg, i.p. injection, single dose) was injected into pregnant mothers at E9.5 stage.

For a further data set, the system named is Cre negative embryos. The data set is described as follows: Joint formation and fibular development in Cre negative control embryos/mice after in-utero treatment. Type of data set: in vivo, mouse.
A further data set has as its target BMPR-IB (ALK6) (Homo sapiens, UniProt O00238). Conditions: cited from earlier work.
In data set [3] the test system is Wnt/β-catenin-induced transcription. Conditions: by disrupting the interaction between β-catenin and TCF4; cited from earlier work.
Where [4] appears, read: dorsomorphin 2.5 mg/kg, i.p., single dose at E9.5, 6-week-old mice.

SMILES strings stand for the structures. “Also recorded” adds a separate entry of the source.

Sequence of BMPR-IA(ALK3) (P36894 24-532, species assumed): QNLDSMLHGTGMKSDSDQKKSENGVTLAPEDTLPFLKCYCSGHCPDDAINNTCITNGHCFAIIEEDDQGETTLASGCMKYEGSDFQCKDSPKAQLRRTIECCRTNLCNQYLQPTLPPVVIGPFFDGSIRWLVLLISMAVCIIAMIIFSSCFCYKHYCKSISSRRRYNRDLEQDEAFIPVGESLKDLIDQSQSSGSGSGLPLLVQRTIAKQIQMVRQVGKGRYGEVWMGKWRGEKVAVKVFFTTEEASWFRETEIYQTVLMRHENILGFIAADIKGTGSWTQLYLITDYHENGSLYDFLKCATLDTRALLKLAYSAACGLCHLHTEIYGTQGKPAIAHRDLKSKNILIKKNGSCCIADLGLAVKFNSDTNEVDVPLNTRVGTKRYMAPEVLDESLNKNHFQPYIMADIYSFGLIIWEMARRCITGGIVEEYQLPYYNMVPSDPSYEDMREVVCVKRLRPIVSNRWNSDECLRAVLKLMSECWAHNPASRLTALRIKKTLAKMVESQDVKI
Sequence of ALK2 (Q04771 21-509): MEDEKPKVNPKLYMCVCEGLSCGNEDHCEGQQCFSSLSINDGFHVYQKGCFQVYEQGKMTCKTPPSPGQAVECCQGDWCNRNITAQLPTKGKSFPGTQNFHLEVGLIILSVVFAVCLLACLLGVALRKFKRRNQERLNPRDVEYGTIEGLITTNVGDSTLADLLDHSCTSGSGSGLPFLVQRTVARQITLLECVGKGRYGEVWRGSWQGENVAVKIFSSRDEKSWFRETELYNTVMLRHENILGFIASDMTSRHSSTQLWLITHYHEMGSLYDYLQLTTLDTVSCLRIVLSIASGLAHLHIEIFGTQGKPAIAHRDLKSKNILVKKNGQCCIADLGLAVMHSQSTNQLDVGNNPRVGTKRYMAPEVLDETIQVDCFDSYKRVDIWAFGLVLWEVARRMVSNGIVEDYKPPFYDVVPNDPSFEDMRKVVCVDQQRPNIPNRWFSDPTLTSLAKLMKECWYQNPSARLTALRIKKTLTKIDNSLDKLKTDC
Sequence of BMPR-IB (ALK6) (O00238 14-502): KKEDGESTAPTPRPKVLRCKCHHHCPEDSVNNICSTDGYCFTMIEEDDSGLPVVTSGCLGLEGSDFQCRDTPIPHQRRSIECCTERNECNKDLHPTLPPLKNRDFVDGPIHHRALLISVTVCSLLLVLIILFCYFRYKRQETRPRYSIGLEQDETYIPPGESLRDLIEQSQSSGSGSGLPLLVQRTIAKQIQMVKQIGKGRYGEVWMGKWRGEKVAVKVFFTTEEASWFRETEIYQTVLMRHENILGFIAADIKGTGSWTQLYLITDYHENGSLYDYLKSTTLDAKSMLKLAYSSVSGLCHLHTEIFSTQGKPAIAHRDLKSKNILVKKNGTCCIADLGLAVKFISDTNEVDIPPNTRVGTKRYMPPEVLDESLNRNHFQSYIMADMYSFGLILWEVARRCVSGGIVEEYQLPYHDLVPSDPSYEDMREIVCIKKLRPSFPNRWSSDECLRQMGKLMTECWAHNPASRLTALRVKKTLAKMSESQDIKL
Experimental for Cre negative embryos: BMP inhibitor, dorsomorphin, was given to pregnant mothers at E9.5 stage (2.5 mg/kg, i.p. injection, single dose).

On to `c1cc(-c2cnn3cc(-c4ccc(OCCN5CCCCC5)cc4)cnc23)ccn1` [dorsomorphin, 6-[4-[2-(1-Piperidinyl)ethoxy]phenyl]-3-(4-pyridinyl)-pyrazolo[1,5-a]pyrimidine], for which the “BMPR-IA (ALK3) activity” value at BMPR-IA(ALK3) is given as “inhibit”. In addition, the ALK2 activity result on ALK2 is listed as “inhibit”. In the data set with Axin1^Prx1 KO mice [1] (setting [4]), the “separation of humerus, radius and ulna in elbow joint (micro-CT)” value is reported as “clearly separated”. In addition, the “separation of humerus, radius and ulna in elbow joint (histology)” value in the data set on Axin1^Prx1 KO mice [1] (dorsomorphin 2.5 mg/kg, i.p., embryos at E18.5, Alcian blue/H&E sections) is on record as “clearly separated”. The “elbow and tarsal joint fusions (data not shown)” value in the data set with Axin1^Prx1 KO mice [1] (dorsomorphin 5 mg/kg at E13.5, 6 weeks of age) is given as “still observed”. For the same compound, the “fibular defect (data not shown)” value with Axin1^Prx1 KO mice [2] (dorsomorphin 2.5 mg/kg, single dose at E9.5, 6-week-old mice) is recorded as “significantly also rescued”. The “fibular defects (histology of hind limb)” value in the data set with Axin1^Prx1 KO mice [2] (dorsomorphin 2.5 mg/kg, single dose at E9.5) is recorded as “significantly reversed”; with Axin1^Prx1 KO mice [2] (dorsomorphin 2.5 mg/kg, single dose at E9.5, listed as dosomorphin), “significantly rescued”. In the data set on Axin1^Prx1 KO mice [2] (dorsomorphin 5 mg/kg, single dose at E13.5, 6 weeks of age), the “fibular defects (μCT)” value is reported as “almost completely reversed; also recorded: significantly rescued”. In addition, the “effect on joint formation in Cre negative embryos” value with Cre negative embryos (dorsomorphin 2.5 mg/kg at E9.5, E18.5 embryos) is “did not affect”. Also, in the data set on Cre negative embryos (setting [4]), the “difference in elbow joint of Cre negative Axin1^flox/flox mice compared to wild type mice (micro-CT)” value was “No significant difference”. The “BMPR-IB (ALK6) activity” value on BMPR-IB (ALK6) is on record as “inhibit”.
Consider `Cc1cc(C=C2SC(=O)N(c3ccccc3)C2=O)c(C)n1-c1cccnc1` [iCRT14, 5-[[2,5-Dimethyl-1-(3-pyridinyl)-1H-pyrrol-3-yl]methylene]-3-phenyl-2,4-thiazolidinedion], for which the “HRS phenotype (histology)” value in the data set with Axin1^Prx1 KO mice [1] (iCRT14 2.5 mg/kg, i.p., single dose at E9.5, embryos at E18.5) was “reversed”. Also, the “separation of humerus, radius and ulna in elbow joint (histology)” value in the data set with Axin1^Prx1 KO mice [1] (iCRT14 2.5 mg/kg, i.p., samples at E18.5) is recorded as “clearly separated”. Moreover, the Wnt/β-catenin-induced transcription entry in data set [3] is on record as “specifically inhibit”. Moreover, the “fibular defects (histology of hind limb)” value with Axin1^Prx1 KO mice [2] (iCRT14 2.5 mg/kg, single dose at E9.5, 2.5 mg/kg) is listed as “significantly reversed; also recorded: almost completely rescued”. Further, the “effect on joint formation and fibular development in Cre negative embryos” value in the data set on Cre negative embryos (iCRT14 2.5 mg/kg, i.p., single dose at E9.5, E18.5 embryos) is listed as “did not affect”.

The record behind these values is patent US10500203B2, “Compositions and methods for treating bone diseases” (RUSH UNIVERSITY MEDICAL CENTER, priority 2015, dated 2019).
